Tested on: mice
Test: Dark Avoidance Assay (block of scopolamine-induced memory impairment in mice, 24 hours)
Type: in vivo
Protocol: In this assay mice are tested for their ability to remember an unpleasant stimulus for a period of 24 hours. A mouse is placed in a chamber than contains a dark compartment; a strong incandescent light drives it to the dark compartment, where an electric shock is administered through metal plates on the floor. The animal is removed from the testing apparatus and tested again, 24 hours later, for the ability to remember the electric shock.
If scopolamine, an anticholinergic agent that is known to cause memory impairment, is administered before an animal's initial exposure to the test chamber, the animal re-enters the dark compartment shortly after being placed in the test chamber 24 hours later. This effect of scopolamine is blocked by an active test compound, resulting in greater interval before re-entry into the dark compartment.
The results for an active compound are expressed as the percent of a group of animals in which the effect of scopolamine is blocked, as manifested by an increased interval between being placed in the test chamber and re-entering the dark compartment.

Nc1c2c(nc3ccccc13)CCCC2 [Tacrine, 9-amino-1,2,3,4-tetrahydro-acridine]
% of Animals Greater than Scopolamine (dose 0.63 mg/kg of body weight): 13%

CC[C@@H]1C(=O)OC[C@@H]1Cc1cncn1C [Pilocarpine]
% of Animals Greater than Scopolamine (dose 5.0 mg/kg of body weight): 13%

c1ccc2c3c(ncc2c1)CCCN3 [1,2,3,4-Tetrahydrobenzo[c]-1,5-naphthyridine]
% of Animals Greater than Scopolamine (dose 1.25 mg/kg of body weight): 27% | % of Animals Greater than Scopolamine (dose 2.5 mg/kg of body weight): 25%

Reference: patent US4742061A, “Benzoc[c]-1,5-naphthyridines and related compounds as memory enhancing agents” (priority 1986, dated 1988)
